From patent US20050255595A1, “Genetically modified non-human mammal cells, procedure for their production and use in toxicity tests” (priority 2002, published 2005)
Where two headings read alike, the source gives them in different places.

Columns and labels:
[1] = system: single transgenic HPS70/hGH primary hepatocytes (PHGH); experiment: toxicity test, hGH secretion by primary transgenic hepatocytes (PHGH); format: cell-based, mice; set-up: hGH secreted, PHGH 1 h / hGH secreted, PHGH 5 h / hGH secreted, PHGH 1 + 24 h / hGH secreted, PHGH 5 + 24: unit of the concentration uncertain
Source text: On the basis of the results illustrated, for the further analyses, clone no. […] The response to the toxic stress of the clone MMH/GH5 was then compared with the one obtained in single transgenic HPS70/hGH primary hepatocytes (PHGH). A representative sample of the cell line derived from said clone MMH/GH5 was deposited in accordance with and for the purposes of the Treaty of Budapest on the international recognition of deposit of micro-organisms for the purposes of the patents procedure with the AID “Centro di Biotecnologie Avanzate (CBA), Interlab Cell Line Collection (ICLC)” Servizio Biotecnologie, Largo R. Benzi, 10, 16132 Genova, Italy, on Jul. 30, 2002, where it was given identification number PD 02007.
(§1) In table 3 the cellular survival percentage was determined with the Trypan Blue exclusion method. […]
(§2) For treatment, the two types of cells were treated with different concentrations of the compounds for 1 or 5 hours and then with normal medium for a further 24 hours. The effects of the treatment were assessed as described previously for the inorganic toxicants.

[2] = system: primary hepatocytes (PHGH); experiment: cellular survival of PHGH, Trypan Blue exclusion; format: cell-based, mice; set-up: % cellular survival, PHGH 1 + 24 h / % cellular survival, PHGH 5 + 24 / % vitality of the cells, PHGH 1 + 24 h / % vitality of the cells, PHGH 5 + 24 h: unit of the concentration uncertain; conditions: for % vitality of the cells, PHGH 1 + 24 h / % cellular survival, PHGH 1 + 24 h: 1 h treatment + 24 h normal medium; for % vitality of the cells, PHGH 5 + 24 h / % cellular survival, PHGH 5 + 24: 5 h treatment + 24 h normal medium
Source text: (§3) This different behaviour is explained by the greater sensitivity to the toxicant of the PHGH with respect to the MMH/GH5 as shown by analysis of the cellular vitality performed with the Trypan Blue method (FIG. 1, graph B). […] Therefore the greater resistance of the cells MMH/GH/5 to the toxicants constitutes another evident advantage as it permits the exclusion of false negatives in which the non-release of hGH, due to cellular death, is interpreted as non-toxicity of the compound. When the supernatant is collected after 5 hours of treatment followed by 24 hours of culture with normal medium (FIG. 1 graph C) the PHGHs respond, at the lowest concentrations of the two toxicants, with high levels of secretion of hGH and, at the highest concentrations, with low levels of secretion of hGH (lower cellular survival, graph D).
as §1, §2

MMH/GH5 cells = experiment: cellular survival of MMH/GH5, Trypan Blue exclusion; format: cell-based, mice; set-up: % cellular survival, MMHGH/5 1 + 24 h / % cellular survival, MMHGH/5 5 + 24 / % vitality of the cells, MMH/GH 1 + 24 h / % vitality of the cells, MMH/GH 5 + 24 h: unit of the concentration uncertain; conditions: for % vitality of the cells, MMH/GH 1 + 24 h / % cellular survival, MMHGH/5 1 + 24 h: 1 h treatment + 24 h normal medium; for % vitality of the cells, MMH/GH 5 + 24 h / % cellular survival, MMHGH/5 5 + 24: 5 h treatment + 24 h normal medium
Source text: as §3, §1, §2

MMH/GH5 cells (Clone 5) = system: MMH/GH5 cells (Clone 5); set-up: hGH secreted, MMHGH/5 1 + 24 h / hGH secreted, MMHGH/5 5 + 24 / hGH secreted, MMHGH/5 1 h / hGH secreted, MMHGH/5 5 h: dose or concentration left out as unconfirmed
[3] = 10 (unit uncertain), Trypan Blue
[4] = 50 (unit uncertain), Trypan Blue (Table 4)
[5] = 100 (unit uncertain), Trypan Blue
[6] = 25 (unit uncertain), Trypan Blue
[7] = 50 (unit uncertain), Trypan Blue (Table 3)
[8] = 0.5 (unit uncertain), Trypan Blue
[9] = 1 (unit uncertain), Trypan Blue

SMILES: c1ccc2c(c1)cc1ccc3cccc4ccc2c1c34 [BaP, Benzo(a)Pyrene]
- stimulation of the promoter HSP70 in the PHGHs ([1]; words, Table 4): does not stimulate
- % vitality of the cells, PHGH 1 + 24 h [2, 3]: 50%
- % vitality of the cells, PHGH 5 + 24 h [2, 3]: 50%
- % vitality of the cells, PHGH 1 + 24 h [2, 4]: 50%
- % vitality of the cells, PHGH 5 + 24 h [2, 4]: 30%
- % vitality of the cells, MMH/GH 1 + 24 h (MMH/GH5 cells; [3]): 90%
- % vitality of the cells, MMH/GH 5 + 24 h (MMH/GH5 cells; [3]): 90%
- % vitality of the cells, MMH/GH 1 + 24 h (MMH/GH5 cells; [4]): 90%
- % vitality of the cells, MMH/GH 5 + 24 h (MMH/GH5 cells; [4]): 90%

SMILES: Oc1c(Cl)c(Cl)c(Cl)c(Cl)c1Cl [PCP, PentaChloroPhenol]
- % vitality of the cells, PHGH 1 + 24 h [2, 4]: 10%
- % vitality of the cells, PHGH 5 + 24 h [2, 4]: 10%
- % vitality of the cells, PHGH 1 + 24 h [2, 5]: 0%
- % vitality of the cells, PHGH 5 + 24 h [2, 5]: 0%
- toxicity for the PHGHs ([2]; words, Table 4): toxic
- % vitality of the cells, MMH/GH 1 + 24 h (MMH/GH5 cells; [4]): 90%
- % vitality of the cells, MMH/GH 5 + 24 h (MMH/GH5 cells; [4]): 70%
- % vitality of the cells, MMH/GH 1 + 24 h (MMH/GH5 cells; [5]): 80%
- % vitality of the cells, MMH/GH 5 + 24 h (MMH/GH5 cells; [5]): 50%
- induction of a response in MMH/GH5 (MMH/GH5 cells (Clone 5); words, Table 4): requires a prolonged exposure time to induce a response

SMILES: Oc1c(Cl)c(Cl)c(O)c(Cl)c1Cl [TCHQ, TetraChloroHydroQuinone]
- response in PHGH ([1]; compared with PCP, words): stronger response
- % vitality of the cells, PHGH 1 + 24 h [2, 4]: 50%
- % vitality of the cells, PHGH 5 + 24 h [2, 4]: 60%
- % vitality of the cells, PHGH 1 + 24 h [2, 5]: 0%
- % vitality of the cells, PHGH 5 + 24 h [2, 5]: 0%
- % vitality of the cells, MMH/GH 1 + 24 h (MMH/GH5 cells; [4]): 50%
- % vitality of the cells, MMH/GH 5 + 24 h (MMH/GH5 cells; [4]): 30%
- % vitality of the cells, MMH/GH 1 + 24 h (MMH/GH5 cells; [5]): 10%
- % vitality of the cells, MMH/GH 5 + 24 h (MMH/GH5 cells; [5]): 0%
- response in MMH/GH5 (MMH/GH5 cells (Clone 5); compared with PCP, words): stronger response

SMILES: CCCCC[C@H](O)/C=C/[C@H]1C=CC(=O)[C@@H]1C/C=C\CCCC(=O)O [PGA2]
- hGH secreted, PHGH 1 h ([1]; 25 (unit uncertain), 1 h treatment): 1 pg hGH/10^6 cells
- hGH secreted, PHGH 1 + 24 h ([1]; 25 (unit uncertain), 1 h treatment + 24 h normal medium): 0 pg hGH/10^6 cells
- hGH secreted, PHGH 5 h ([1]; 25 (unit uncertain), 5 h treatment): 56 pg hGH/10^6 cells
- hGH secreted, PHGH 5 + 24 ([1]; 25 (unit uncertain), 5 h treatment + 24 h normal medium): 10 pg hGH/10^6 cells
- hGH secreted, PHGH 1 h ([1]; 50 (unit uncertain), 1 h treatment (Table 3)): 27 pg hGH/10^6 cells
- hGH secreted, PHGH 1 + 24 h ([1]; 50 (unit uncertain), 1 h treatment + 24 h normal medium (Table 3)): 26 pg hGH/10^6 cells
- hGH secreted, PHGH 5 h ([1]; 50 (unit uncertain), 5 h treatment (Table 3)): 95 pg hGH/10^6 cells
- hGH secreted, PHGH 5 + 24 ([1]; 50 (unit uncertain), 5 h treatment + 24 h normal medium (Table 3)): 37 pg hGH/10^6 cells
- % cellular survival, PHGH 1 + 24 h [2, 6]: 90%
- % cellular survival, PHGH 5 + 24 [2, 6]: 90%
- % cellular survival, PHGH 1 + 24 h [2, 7]: 90%
- % cellular survival, PHGH 5 + 24 [2, 7]: 90%
- % cellular survival, MMHGH/5 1 + 24 h (MMH/GH5 cells; [6]): 90%
- % cellular survival, MMHGH/5 5 + 24 (MMH/GH5 cells; [6]): 90%
- % cellular survival, MMHGH/5 1 + 24 h (MMH/GH5 cells; [7]): 90%
- % cellular survival, MMHGH/5 5 + 24 (MMH/GH5 cells; [7]): 90%
- hGH secreted, MMHGH/5 1 h (MMH/GH5 cells (Clone 5); 25, 1 h treatment): 1 pg hGH/10^6 cells
- hGH secreted, MMHGH/5 1 + 24 h (MMH/GH5 cells (Clone 5); 25, 1 h treatment + 24 h normal medium): 2 pg hGH/10^6 cells
- hGH secreted, MMHGH/5 5 h (MMH/GH5 cells (Clone 5); 25, 5 h treatment): 53 pg hGH/10^6 cells
- hGH secreted, MMHGH/5 5 + 24 (MMH/GH5 cells (Clone 5); 25, 5 h treatment + 24 h normal medium): 0 pg hGH/10^6 cells
- hGH secreted, MMHGH/5 1 h (MMH/GH5 cells (Clone 5); 50, 1 h treatment (Table 3)): 8 pg hGH/10^6 cells
- hGH secreted, MMHGH/5 1 + 24 h (MMH/GH5 cells (Clone 5); 50, 1 h treatment + 24 h normal medium (Table 3)): 92 pg hGH/10^6 cells
- hGH secreted, MMHGH/5 5 h (MMH/GH5 cells (Clone 5); 50, 5 h treatment (Table 3)): 107 pg hGH/10^6 cells
- hGH secreted, MMHGH/5 5 + 24 (MMH/GH5 cells (Clone 5); 50, 5 h treatment + 24 h normal medium (Table 3)): 0 pg hGH/10^6 cells

SMILES: C=CC(O)CCCCC (stereo not drawn) [1-Oct, 1-octene-3-ol]
- effect of the treatment (hGH secretion) ([1]; PHGH versus MMH/GH, at the end of the treatment): can be measured only in PHGH
- % cellular survival, PHGH 1 + 24 h [2, 8]: 90%
- % cellular survival, PHGH 5 + 24 [2, 8]: 60%
- % cellular survival, PHGH 1 + 24 h [2, 9]: 50%
- % cellular survival, PHGH 5 + 24 [2, 9]: 20%
- cellular survival ([2]; PHGH, words, Table 3): reduced cellular survival
- % cellular survival, MMHGH/5 1 + 24 h (MMH/GH5 cells; [8]): 90%
- % cellular survival, MMHGH/5 5 + 24 (MMH/GH5 cells; [8]): 50%
- % cellular survival, MMHGH/5 1 + 24 h (MMH/GH5 cells; [9]): 70%
- % cellular survival, MMHGH/5 5 + 24 (MMH/GH5 cells; [9]): 20%
